This note sets out measurements from patent US10093629B2, “Heterocyclic compounds and their use as retinoid-related orphan receptor (ROR) gamma-T inhibitors” (Takeda Pharmaceutical Company Limited, priority 2014, dated 2018).

In test [1] the target is T1, RORγt (Homo sapiens, UniProt P51449).
T1 sequence (P51449 1-497 isoform P51449-2): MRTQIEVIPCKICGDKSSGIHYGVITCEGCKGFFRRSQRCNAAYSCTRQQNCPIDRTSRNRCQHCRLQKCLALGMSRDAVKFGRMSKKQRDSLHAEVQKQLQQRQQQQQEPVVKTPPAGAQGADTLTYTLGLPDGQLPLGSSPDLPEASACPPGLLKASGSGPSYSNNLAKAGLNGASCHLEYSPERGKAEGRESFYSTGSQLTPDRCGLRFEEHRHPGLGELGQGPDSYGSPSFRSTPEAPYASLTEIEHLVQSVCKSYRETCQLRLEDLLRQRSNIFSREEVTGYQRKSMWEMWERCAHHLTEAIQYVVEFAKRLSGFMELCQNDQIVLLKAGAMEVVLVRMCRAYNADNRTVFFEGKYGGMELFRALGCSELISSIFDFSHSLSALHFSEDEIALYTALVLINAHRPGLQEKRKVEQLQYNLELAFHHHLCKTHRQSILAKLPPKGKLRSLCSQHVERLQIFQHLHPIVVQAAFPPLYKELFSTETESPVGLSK
In words: RORγt binding test using fluorescent-labeled synthetic ligand (TR-FRET). The following applies: read-out: binding inhibitory rate of fluorescent-labeled synthetic ligand to RORγt at test compound 1 μM. As to the method:
RORγt Binding Test using Fluorescent-Labeled Synthetic Ligand
The binding activity of the test compound to RORγt was measured by a time resolved fluorescence resonance energy transfer method (TR-FRET) utilizing histidine-tagged RORγt, fluorescent-labeled synthetic ligand and terbium-labeled anti-histidine tag antibody (Invitrogen). First, a test compound diluted with an assay buffer (20 mM Tris-HCl (pH 7.5), 100 mM NaCl, 1 mM DTT, 0.1% BSA) was added to a 384 well plate by 3 μL. Then, RORγt diluted with an assay buffer to 240 nM was added by 3 μL, after which fluorescent-labeled synthetic ligand diluted with the assay buffer to 12 μM was added by 3 μL, and the mixture was stood at room temperature for 20 min. Thereafter, a terbium-labeled anti-histidine tag antibody diluted with the assay buffer to 8 nM was added by 3 μL. The mixture was stood at room temperature for 20 min, and fluorescence intensity (excitation wavelength 320 nm, fluorescence wavelength 520 nm, delay time 100 microseconds) was measured by Envision (PerkinElmer).

For test [2], the target named is T1, RORγt. In words: Cofactor recruitment test (Alpha Screen, biotinylated SRC-1 peptide). It is filed as biochemical. Particulars: read-out: signal value inhibitory rate at test compound 1 μM. As to the method: Cofactor Recruitment Test
Cofactor recruitment test was performed by Alpha Screen (Histidine Detection Kit, PerkinElmer) method. First, a test compound was diluted with an assay buffer (50 mM Tris-HCl (pH 7.5), 50 mM KCl, 1 mM DTT, 0.1% BSA) and added to a 384 well plate by 5 μL. […] The mixture was stood in a dark place for 1 hr, and the signal value was measured by Envision (PerkinElmer).

In test [3] the target is T1, RORγt. In words: Jurkat reporter test (human IL-17 ROR response element luciferase, RORγt vector). The following applies: test compound 3 μM; Jurkat cells; read-out: luminescence level inhibitory rate at test compound 3 μM. It is filed as cell-based. As to the method:
The Jurkat cells used for the reporter test were cultured in a culture medium (RPMI (Invitrogen), 10% FCS (AusGeneX), 100 U/mL penicillin, 100 μg/mL streptomycin). On the day of the test, 4×10^7 cells were recovered by a centrifugal operation (1000 rpm, 5 min.) and suspended in PBS (phosphate buffered saline) (Invitrogen). Thereafter, the cells were recovered again by a centrifugal operation, and suspended in 2 mL of R buffer (NEON transfection kit, Invitrogen). […] Gene transfer was performed by Electroporation apparatus (NEON, Invitrogen) under the conditions of pulse voltage 1350 V, interval 10 milliseconds, number of times 3. The cells after gene transfer were suspended in 40 mL of a reaction medium (RPMI, 10% Lipid reduced FCS (HyClone), 10 mM HEPES (pH 7.5), 100 U/mL penicillin, 100 μg/mL streptomycin, 5 μM lovastatin), and plated in a 96 well plate by 90 μL. A test compound diluted with the reaction medium was added by 10 μL, and the cells were cultured overnight in an incubator. Bright-Glo (Promega) was added by 100 μL, and the mixture was stirred at room temperature for 10 min, and the luminescence level was measured by Envision (PerkinElmer).

The subject of test [4] is IL-17 production in human blood. In words: Effect on IL-17 production in human blood. Particulars: 72 h; 10 μM test compound; human peripheral blood, IL-23 and Dynabeads stimulation, 3 days; read-out: percent inhibition at 10 μM (IL-17 production). It is filed as cell-based. As to the method:
Effect on IL-17 Production in Human Blood
The inhibitory effect of the test compound on IL-17 production in human blood was evaluated as follows. First, 150 μL of peripheral blood collected from healthy individuals using heparinized vacuum blood collection tubes was dispensed into each well of a 96-well plate (Corning), and 45 μL of RPMI 1640 medium (Gibco) containing 10% fetal bovine serum (FBS, Hyclone) and 30 μL of the test compound diluted with the medium were added to each well. The plate was then cultured for 30 min at 37° C. The cells were subsequently stimulated by adding 30 μL of 100 ng/mL human IL-23 (R&D) and 45 μL of Dynabeads Human (Invitrogen) to each well and culturing the plate for 3 days at 37° C. In wells without stimulation, 75 μL of RPMI 1640 medium containing 10% FBS was added instead of the IL-23 and Dynabeads solution. After culturing for 3 days, the culture supernatant was collected, and the amount of IL-17 in the supernatant was measured using an IL-17 ELISA kit (R&D).
The results (percent inhibition of IL-17 production with 10 μM of the test compound) measured by the above-mentioned method are shown in Table 8.

Another test relates to IL-17A gene expression. Nature of the test: Effect on IL-23-induced cytokine expression in mice. It is filed as in vivo, mouse. The following applies: 10 mg/kg oral, 30 min before and 8 hr after IL-23; ear of Balb/c mice; versus the negative control group. As to the method:
Effect on IL-23-Induced Cytokine Expression in Mice
A mouse IL-23 solution (500 ng/10 μL, prepared by Takeda Pharmaceutical Company Limited) or PBS (10 μL, negative control group) was administered intradermally in the ear of Balb/c mice (Charles River Japan, male, 7 weeks old). Twenty-four hr after administration, the ear was resected under isoflurane anesthesia. The test compound was suspended in 0.5% methylcellulose and administered orally 30 min before and 8 hr after IL-23 administration.
RNA extraction from the ear tissue and quantitative PCR were performed as follows. Specifically, ear tissue 5 mm in diameter was punched from an area of the resected ear centering on the IL-23 injection site, and the tissue was immersed in RNAlater (QIAGEN) for at least 18 hr. The RNAlater-treated ear tissue was homogenized in 350 μL of RLT buffer (RNeasy mini kit, QIAGEN) and treated (55° C., 10 min) with Proteinase K (QIAGEN). Total RNA was then extracted according to the RNeasy mini kit protocol. The RNA thus obtained was then reverse transcribed into cDNA using the High-Capacity RNA-to-cDNA kit (Applied Biosystems), and the amount of each gene expressions was measured by real-time PCR (Viia7™, Applied Biosystems). The PCR buffer used was TaqMan Fast Advanced Master Mix (Applied Biosystems), and TaqMan Gene Expression Assays (Applied Biosystems) Mm00439618_m1 (IL-17A) and 4352341E (β-actin) were used for each gene detection. The IL-17A gene expression level was normalized to the β-actin gene expression level, and the percent inhibition of IL-17A gene expression with the test compound was then calculated.
The results (percent inhibition of IL-17A gene expression with oral administration of the test compound) measured by the above-mentioned method are shown in Table 9.

On to `COc1ccc2c(c1)CCN(C(=O)C1CC(CC(=O)O)C1)[C@H]2C(=O)Nc1cc(F)c([Si](C)(C)C)c(F)c1` (stereo partly drawn) [Example 4, (3-(((1R)-1-((3,5-difluoro-4-(trimethylsilyl)phenyl)carbamoyl)-6-methoxy-3,4-dihydroisoquinolin-2(1H)-yl)carbonyl)cyclobutyl)acetic acid], for which the inhibition at 1 µM on RORγt [1] came to 102%; on RORγt [2] it was 94%. Further, on RORγt [3], the inhibition at 3 µM is 100%. The inhibition at 10 µM in test [4] stood at 88.3%. In the test with IL-17A gene expression, the “percent inhibition of IL-17A gene expression” value (shortened to “percent inhibition”) is 86%.
For `COc1ccc2c(c1)CCN(C(=O)[C@H]1C[C@@H](C(=O)O)C1)[C@H]2C(=O)Nc1cc(F)c([Si](C)(C)C)c(F)c1` [Example 5, cis-3-(((1R)-1-((3,5-difluoro-4-(trimethylsilyl)phenyl)carbamoyl)-6-methoxy-3,4-dihydroisoquinolin-2(1H)-yl)carbonyl)cyclobutanecarboxylic acid], the inhibition at 1 µM on RORγt [1] came out at 102%; on RORγt [2] it was 93%. Moreover, the inhibition at 3 µM on RORγt [3] was 100%. The inhibition at 10 µM in test [4] was determined as 88.6%. Moreover, in the test on IL-17A gene expression, the “percent inhibition” value was 57%.
Taken in the same sequence, the figures for `CCOc1ccc2c(c1)CCN(C(=O)[C@H]1C[C@@H](C(=O)O)C1)[C@H]2C(=O)Nc1cc(F)c([Si](C)(C)C)c(F)c1` [Example 8, cis-3-(((1R)-1-((3,5-difluoro-4-(trimethylsilyl)phenyl)carbamoyl)-6-ethoxy-3,4-dihydroisoquinolin-2(1H)-yl)carbonyl)cyclobutanecarboxylic acid] were 102%, 90%, 100%, 82.9% and 72%.
Regarding `CCOc1ccc2c(c1)CCN(C(=O)[C@H]1C[C@H](C(=O)O)C1)[C@H]2C(=O)Nc1cc(F)c([Si](C)(C)C)c(F)c1` [Example 9, trans-3-(((1R)-1-((3,5-difluoro-4-(trimethylsilyl)phenyl)carbamoyl)-6-ethoxy-3,4-dihydroisoquinolin-2(1H)-yl)carbonyl)cyclobutanecarboxylic acid], the results for the inhibition at 1 µM at RORγt [1] and at RORγt [2] were 102% and 88%, respectively. For the same compound, the inhibition at 3 µM at RORγt [3] came to 99%. In addition, in test [4], the inhibition at 10 µM was 93.5%. Moreover, the “percent inhibition” value in the test on IL-17A gene expression is listed as 57%.
With `COc1ccc2c(n1)CCN(C(=O)[C@H]1C[C@@H]1CC(=O)O)[C@H]2C(=O)Nc1cc(F)c([Si](C)(C)C)c(F)c1` [Example 13, ((1R,2S)-2-(((5R)-5-((3,5-difluoro-4-(trimethylsilyl)phenyl)carbamoyl)-2-methoxy-7,8-dihydro-1,6-naphthyridin-6(5H)-yl)carbonyl)cyclopropyl)acetic acid], the values for the inhibition at 1 µM on RORγt [1] and at RORγt [2] were 102% and 83%, respectively. Further, on RORγt [3], the inhibition at 3 µM worked out at 104%. In the test with IL-17A gene expression, the “percent inhibition” value came out at 91%.
Take `COc1ccc2c(n1)CCN(C(=O)[C@H]1C[C@H](CC(=O)O)C1)[C@H]2C(=O)Nc1cc(F)c2c(c1)CCC2(C)C` [Example 20, (trans-3-(((5R)-5-((7-fluoro-1,1-dimethyl-2,3-dihydro-1H-inden-5-yl)carbamoyl)-2-methoxy-7,8-dihydro-1,6-naphthyridin-6(5H)-yl)carbonyl)cyclobutyl)acetic acid]: the “percent inhibition” value in the test on IL-17A gene expression worked out at 99%.
Turning to `COc1ccc2c(n1)CCN(C(=O)[C@H]1C[C@@H](CC(=O)O)C1)[C@H]2C(=O)Nc1cc(F)c([Si](C)(C)C)c(F)c1` [Example 23, (cis-3-(((5R)-5-((3,5-difluoro-4-(trimethylsilyl)phenyl)carbamoyl)-2-methoxy-7,8-dihydro-1,6-naphthyridin-6(5H)-yl)carbonyl)cyclobutyl)acetic acid], the inhibition at 1 µM at RORγt [1] came out at 102%; on RORγt [2], 87%. At RORγt [3], the inhibition at 3 µM was 101%. Besides, the inhibition at 10 µM in test [4] is 85.9%. Further, the “percent inhibition” value in the test with IL-17A gene expression is on record as 96%.
For `COc1ccc2c(c1)CCN(C(=O)[C@H]1C[C@@H](CC(=O)O)C1)[C@H]2C(=O)Nc1cc(F)c([Si](C)(C)C)c(F)c1` [Example 25, (cis-3-(((1R)-1-((3,5-difluoro-4-(trimethylsilyl)phenyl)carbamoyl)-6-methoxy-3,4-dihydroisoquinolin-2(1H)-yl)carbonyl)cyclobutyl)acetic acid], the inhibition at 1 µM on RORγt [1] amounted to 102%; at RORγt [2] it was 93%. Also, on RORγt [3], the inhibition at 3 µM came out at 101%. For the same compound, the “percent inhibition” value in the test on IL-17A gene expression was determined as 92%.
Turning to `COc1ccc2c(c1)CCN(C(=O)[C@H]1C[C@@H](C(=O)O)C1)[C@H]2C(=O)Nc1ccc([Si](C)(C)C)c(F)c1` [Example 32, cis-3-(((1R)-1-((3-fluoro-4-(trimethylsilyl)phenyl)carbamoyl)-6-methoxy-3,4-dihydroisoquinolin-2(1H)-yl)carbonyl)cyclobutanecarboxylic acid], the results for the inhibition at 1 µM on RORγt [1] and at RORγt [2] were 102% and 91%, respectively. Further, the inhibition at 3 µM at RORγt [3] was 101%. Besides, the “percent inhibition” value in the test on IL-17A gene expression was 83%.
